Measured values as given in patent US20260256716A1, “COMPOSITIONS AND METHODS OF USE THEREOF” (Board of Supervisors of Louisiana State University and …, priority 2023, published 2026).

Assays:
ARPE-19 cells = assay: ARPE-19 proliferation (DAPI cell number, fold change in growth); type: cell-based, human; conditions: ARPE-19, 72 h, R-DOI 0.1 nM or 1 nM
Method: Specific 5-HT2A Receptor Activation via Model Phenethylamines, like R-DOI. […] ARPE-19 cells were plated in nutrient rich media, DMEM, containing 7% dialyzed FCS and then starved in DMEM media containing 0.5% dialyzed FCS. Cells were then changed to 7% dialyzed FCS DMEM media containing physiolocial relevant levels of serotonin at varying concentrations and grown for 72-hours. Cell numbers were determined through DNA staining with DAPI and fold change in growth was determined from baseline readings at 24-hours. To assess if agonists of the 5HT2A receptor could enhance cell health and proliferation specifically through the 5-HT2A receptor, the model 5-HT2A receptor agonist, R-DOI was added at either 0.1 nM or 1 nM. […] Also, included is a summary of physiological serotonin and 5-HT2A receptor agonist/antagonist outcomes on cellular proliferation. This increase in proliferation promotes the formation of a compact RPE-monolayer which is important for maintaining a healthy blood-retinal barrier and can occur with low dose administration of 5-HT2A receptor agonists.
ARPE-19 cells were plated in nutrient rich media, DMEM, containing 7% dialyzed FCS and then starved in DMEM media containing 0.5% dialyzed FCS. Cells were then changed to 7% dialyzed FCS DMEM media containing physiological relevant levels of serotonin at varying concentrations and grown for 72-hours. Cell numbers were determined through DNA staining with DAPI and fold change in growth was determined from baseline readings at 24-hours. To assess if serotonin enhances cell health and proliferation specifically through the 5-HT2A receptor, the 5-HT2A receptor antagonist, M100,907 at 10 nM was included during serotonin induction.

mitofusin2 and TOMM20 = assay: Western blot of mitofusin2 and TOMM20 in ARPE-19 cells; type: cell-based, human; conditions: all concentrations; 48 h post treatment; DMEM 7% FCS
Text: Representative 5-HT2A Receptor Agonist, R-DOI, Increases Mitochondrial Biogenesis and Quality by Inducing Mitochondrial Fusion at low nM concentrations thereby reversing adverse processes that underlie development and progression of the Pathophysiology of Age-Associated Ocular and Neurodegenerative Diseases. Consistent with the Maintenance of Functional Mitochondria and Mitochondrial Health, Serotonin 2A Receptor Agonism, Like with R-DOI, Increases Enzymatic BioMarkers of Mitochondrial Fusion (Mitofusin2) and Biogenesis (TOMM20). ARPE-19 cells were grown in DMEM 7% FCS containing the indicated concentrations of R-DOI. 48 h post treatment, cell samples were lysed and normalized prior to running western blots to evaluate mitofusin2 and TOMM20 protein expression. […] Mitofusion2 functions to regulate mitochondrial fusion. TOMM20 imports proteins through the outer membrane and is a marker of biogenesis and number.

intracellular H2O2 = assay: Intracellular H2O2 (ROS-Glo bioluminescence) in ARPE-19 cells at diabetic glucose concentrations; type: cell-based, human; conditions: 10 nM; glucose 5, 10, 20, 30 mM; 72 hours
Method: Hyperglycemic conditions induce increased disease promoting ROS production that is abrogated by low nM concentrations of the Representative 5-HT2A Receptor Agonist. R-DOI Returning to Base-line Homeostatic Levels. ARPE-19 cells were plated using physiological media (HPLM; 7% FCS) overnight prior to starvation (HPLM 0.5% FCS) overnight with or without 10 nM R-DOI. Cells were then replaced with HPLM 7% FCS containing a range of glucose concentrations spanning diabetic blood glucose levels (5 mM, 10 mM, 20 mM, and 30 mM) with or without the addition of 10 nM R-DOI for 72-hours. Cells were then lysed to quantify intracellular H2O2 levels via bioluminescence as described above. Low dose 5-HT2A agonists abrogate the hyperglycemic induced induction od ROS that is pathophysiological for development and progression of neurodegenerative and ocular age-related diseases, especially within diabetic patients, or patients that have conditions that induce increased levels of blood glucose. Pathological glucose concentrations increase intracellular H2O2. 5-HT2AR agonism alleviates glucose-induced intracellular H2O2 at diabetic glucose concentrations.
Evaluating intracellular reactive oxygen species (ROS) levels (FIG. 67). Promega's ROS-Glo H2O2 assay enables researchers to evaluate intracellular ROS levels. […]

AMP kinase = AMP kinase activation in treated cells; type: cell-based; conditions: low nM concentrations
ARPE cells [1] = assay: Mitochondrial biomass and potential (MitoTracker staining / flow cytometry) in ARPE cells; type: cell-based, human; conditions: 10 fold dilutions 100 nM to 0.001 nM; 48 hours
Method: Representative 5-HT2A Receptor Agonist, R-DOI, Increases Mitochondrial Biogenesis and Function at low nM to sub nanomolar concentrations thereby reversing adverse processes that underlie development and progression of the Pathophysiology of Age-Associated Ocular and Neurodegenerative Diseases. ARPE cells were plated and treated with 10 fold dilutions of R-DOI from 100 nM to 0.001 nM. 48 hours post treatment, mitochondrial biomass was assessed either by staining for mitochondria using mitotracker (green, left panel) or via flow cytometry using MitoTracker Red CMOXROS that assesses both mitochondrial biomass and mitochondrial potential.

ARPE cells [2] = assay: Blue light induced mitochondrial oxidative stress in ARPE cells (Mitosox); type: cell-based, human; conditions: 0.001 nM; 24 hours; hyperglycemic conditions; blue light 400 nm 12 seconds
Method: Representative 5-HT2A Receptor Agonist, R-DOI Inhibits Blue Light Induced Mitochondrial-Mediated Oxidative Stress at low sub-nanomolar concentrations thereby reversing adverse processes that are associated with retinal exposure to blue light. ARPE cells grown under hyperglycemic conditions were plated and mock treated or treated with R-DOI at 0.001 nM. 24 hours post treatment, live ARPE cells were labeled with the mitochondrial oxidative stress indicator dye Mitosox that becomes fluorescent red under mitochondria-induced oxidative stress conditions. Once stained, live ARPE cells were exposed to focused blue light at 400 nm for 12 seconds and the ability of drugs to protect against blue light damage-induced mitochondrial oxidative stress induction was assessed. In the absence of 5HT2A agonists, there was a clear increase in red fluorescence upon blue light exposure.

ARPE cells [3] = assay: Cumene hydroperoxide induced lipid peroxidation in ARPE cells (BODIPY); type: cell-based, human; conditions: 100 nM and 1 nM overnight; 100 uM cumene hydroperoxide
Method: Representative 5-HT2A Receptor Agonist, R-DOI, Decreases Oxidative stress induced lipid peroxidation at low nM concentrations thereby reversing adverse processes that underlie development and progression of the Pathophysiology of Age-Associated Ocular and Neurodegenerative Diseases. ARPE cells were plated and mock treated or treated with the 5HT2A agonist R-DOI at 100 nM or 1 nM concentrations. Following an overnight incubation, live ARPE cells were labeled with an lipid peroxidation indicator dye BODIPY that changes fluorescence from red to green as it becomes oxidized. Cells were subsequently treated with 100 uM cumene hydroperoxide to induce lipid peroxidation and cellular oxidative stress and imaged in the red and green channels to assess the protective effects of 5HT2A agonists on lipid peroxidation. In the absence of 5HT2A agonists, there was a clear increase in green fluorescence present following treatment with cumene hydroperoxide.

## COc1cc(C[C@@H](C)N)c(OC)cc1I (single isomer, unassigned) [R-DOI, R enantiomer 2,5-Dimethoxy-4-iodoamphetamine]
ARPE-19 cells
  proliferation of RPE (fold change in growth): Stimulate and Restore Healthy Proliferation of RPE
mitofusin2 and TOMM20
  Mitofusin 2 protein expression: increased expression of Mitofusin 2
  TOMM20 protein expression (mitochondrial biomass): increased mitochondrial biomass (TOMM20)
Intracellular H2O2
  hyperglycemia induced ROS production (intracellular H2O2): abrogated
AMP kinase
  AMP kinase activation: activation of AMP kinase
ARPE cells [1]
  mitochondrial biomass and mitochondrial potential: increased both mitochondrial biomass and potential
ARPE cells [2]
  blue light induced mitochondrial oxidative stress: abrogated mitochondrial oxidative stress responses
ARPE cells [3]
  oxidative stress induced lipid peroxidation: abrogated lipid peroxidation
